Laboratory results as given in patent US20150266878A1, “NOVEL BI-RING PHENYL-PYRIDINES/PYRAZINES FOR THE TREATMENT OF CANCER” (HOFFMANN-LA ROCHE INC., priority 2012, published 2015).

Legend:
[1] = tested on: AGS (gastric cancer); test: In vitro cell proliferation assay (CCK-8), AGS; format: cell-based; conditions: Homo sapiens, AGS cells, 72 hours
Protocol: (§1) In Vitro Cell Proliferation Assay:
(§2) Cells were seeded on 96-well plates at 5×10^3 cells per well and precultured for 24 hours. The cells were treated with serial diluted compounds and cultured for 72 hours. Then all media was discarded and after that, 100 μL 1:10 (v/v) Cell Counting Kit-8 (CCK-8)-culture media solution was added to the wells. Plate was developed for 2 hours in an incubator, and the absorbance was measured at 450 nm wavelengths with SpectraMAX190 (MDS, Sunnyvale, Calif.). The inhibition rate (IR) of the tested compounds was determined with following formula: IR (%)=(ODDMSO−ODcompound)/ODDMSO×100%. The concentration corresponding to 50% IR (IC50) was determined with plot curve of IR against tested compound concentrations with SoftMax Pro.

[2] = tested on: HCT116 (colorectal cancer); test: In vitro cell proliferation assay (CCK-8), HCT116; format: cell-based; conditions: Homo sapiens, HCT-116, HCT116 cells, 72 hours
Protocol: as §1, §2

[3] = tested on: SW-837 (colorectal cancer); test: In vitro cell proliferation assay (CCK-8), SW-837; format: cell-based; conditions: Homo sapiens, SW837, SW-837 cells, 72 hours
Protocol: as §1, §2

[4] = target: T1, CDK8/Cyclin C (Homo sapiens, UniProt P49336); test: CDK8/Cyclin C LANCE TR-FRET kinase assay; format: biochemical; conditions: CDK8/Cyclin C 10 nM, ATP 24 μM, Ulight-GS peptide 80 nM, 37° C. 30 mins
T1 construct: purchased Invitrogen PV4402
T1 sequence (P49336 whole entry): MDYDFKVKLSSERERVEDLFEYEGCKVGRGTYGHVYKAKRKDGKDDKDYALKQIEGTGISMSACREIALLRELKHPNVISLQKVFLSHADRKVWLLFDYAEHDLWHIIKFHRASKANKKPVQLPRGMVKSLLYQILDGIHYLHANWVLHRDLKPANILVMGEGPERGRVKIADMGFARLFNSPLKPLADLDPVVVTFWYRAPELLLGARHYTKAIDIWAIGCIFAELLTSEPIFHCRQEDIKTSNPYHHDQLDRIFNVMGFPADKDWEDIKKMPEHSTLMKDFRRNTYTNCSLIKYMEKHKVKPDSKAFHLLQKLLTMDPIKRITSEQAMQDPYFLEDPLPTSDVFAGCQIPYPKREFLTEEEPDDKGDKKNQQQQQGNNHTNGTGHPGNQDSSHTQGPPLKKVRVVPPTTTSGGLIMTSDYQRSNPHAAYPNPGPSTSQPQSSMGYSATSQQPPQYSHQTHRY
T1 sequence (P24863 whole entry partner): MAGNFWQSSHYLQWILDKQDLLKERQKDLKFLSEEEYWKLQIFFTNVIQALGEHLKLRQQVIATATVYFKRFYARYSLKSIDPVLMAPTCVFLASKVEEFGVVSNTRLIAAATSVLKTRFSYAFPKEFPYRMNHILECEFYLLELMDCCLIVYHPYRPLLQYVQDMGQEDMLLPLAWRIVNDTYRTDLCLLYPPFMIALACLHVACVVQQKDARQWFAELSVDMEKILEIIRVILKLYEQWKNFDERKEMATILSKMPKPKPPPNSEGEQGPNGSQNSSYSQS
Description: CDK8/Cyclin C LANCE TR-FRET Kinase Assay:
The biological activity of the compounds of the invention can be determined using the assay described below.
CDK8/Cyclin C protein was obtained from Invitrogen, cat #PV4402. ULight-Glycogen Synthase (Ulight-GS) peptide with sequence PASVPPSPSLSRHSSPHQ(pS)ED, and Europium-anti-phospho Glycogen Synthase (Ser641) [Eu-anti-P-GS (Ser641)] were obtained from Perkin Elmer, cat #TRF0131-M and cat #TRF0220. Adenosine-5′-triphosphate (ATP) was obtained from Invitrogen, cat #PV3227.
A mixture of (1) a compound of formula I, (2) substrate [Ulight-GS peptide (80 nM) and ATP (24 μM)], and (3) CDK8/Cyclin C (10 nM) in reaction buffer (50 mM Hepes, pH7.0, 10 mM MgCl2, 1 mM EGTA, 0.2 mg/mL BSA, 0.8 mM DTT) were incubated at 37° C. for 30 mins. Then, [Eu-anti-P-GS (Ser641)] (1.5 nM) was added. Following incubation at room temperature for 30 mins, the TR-FRET signals were detected using Envision reader (Ex 340 nm, Em 615 nm and 665 nm) from Perkin Elmer. The reactivity in percentage of inhibition or dose response was analyzed with GraphPad Prism 5 (GraphPad Software).

`O=C1Cc2cc(-c3cncc(N[C@@H](CO)c4ccccc4)c3)ccc2N1` [Example 1, 5-[5-((R)-2-Hydroxy-1-phenyl-ethylamino)-pyridin-3-yl]-1,3-dihydro-indol-2-one] gave an IC50 [1] of 0.65 µM, an IC50 [2] of 0.66 µM and an IC50 [3] of 2.3 µM. The IC50 [4] was 3.5 nM.

For `OC[C@H](Nc1cncc(-c2ccc3[nH]ncc3c2)c1)c1ccccc1` [Example 16, (R)-2-[5-(1H-Indazol-5-yl)-pyridin-3-ylamino]-2-phenyl-ethanol], the IC50 [1] was 0.033 µM, the IC50 [2] was 0.037 µM and the IC50 [3] was 0.091 µM. For the same molecule, the IC50 [4] was 0.2 nM.

Work on `NC(=O)C(Nc1cncc(-c2cc3c(cc2F)NC(=O)CC3)c1)c1ccccc1` (centres unmarked) [Example 34, 2-[5-(7-Fluoro-2-oxo-1,2,3,4-tetrahydro-quinolin-6-yl)-pyridin-3-ylamino]-2-phenyl-acetamide] yielded an IC50 [4] of 1400 nM.

With `NC(=O)C(Nc1cncc(-c2ccc3c(c2)OCO3)c1)c1ccccc1` (centres unmarked) [Example 35, 2-(5-Benzo[1,3]dioxol-5-yl-pyridin-3-ylamino)-2-phenyl-acetamide] the IC50 [4] was 559 nM.

`NC(=O)C(Nc1cncc(-c2ccc3c(c2)OCCO3)c1)c1ccccc1` (centres unmarked) [Example 36, 2-[5-(2,3-Dihydro-benzo[1,4]dioxin-6-yl)-pyridin-3-ylamino]-2-phenyl-acetamide] showed an IC50 [4] of 2510 nM.

`NC(=O)C(Nc1cncc(-c2ccc3[nH]ncc3c2)c1)c1ccccc1` (centres unmarked) [Example 37, 2-[5-(1H-Indazol-5-yl)-pyridin-3-ylamino]-2-phenyl-acetamide] gave an IC50 [4] of 3.4 nM.

`NC(=O)[C@H](Nc1cncc(-c2ccc3[nH]ncc3c2)c1)c1ccccc1` [Example 38, (R)-2-[5-(1H-Indazol-5-yl)-pyridin-3-ylamino]-2-phenyl-acetamide] showed an IC50 [4] of 0.9 nM.

`NC(=O)[C@@H](Nc1cncc(-c2ccc3[nH]ncc3c2)c1)c1ccccc1` [Example 39, (S)-2-[5-(1H-indazol-5-yl)-pyridin-3-ylamino]-2-phenyl-acetamide] showed an IC50 [4] of 8.8 nM.

For `CC(=O)NC[C@H](Nc1cncc(-c2ccc3[nH]ncc3c2)c1)c1ccccc1` [Example 40, N-{(R)-2-[5-(1H-Indazol-5-yl)-pyridin-3-ylamino]-2-phenyl-ethyl}-acetamide], the IC50 [4] was 1.8 nM.

`CS(=O)(=O)NC[C@H](Nc1cncc(-c2ccc3[nH]ncc3c2)c1)c1ccccc1` [Example 41, N-{(R)-2-[5-(1H-Indazol-5-yl)-pyridin-3-ylamino]-2-phenyl-ethyl}-methanesulfonamide] was tested, and the IC50 [4] was 0.3 nM.

`NC(=O)C(Nc1cncc(-c2ccc3[nH]nc(F)c3c2)c1)c1ccccc1` (centres unmarked) [Example 42, 2-[5-(3-Fluoro-1H-indazol-5-yl)-pyridin-3-ylamino]-2-phenyl-acetamide] showed an IC50 [4] of 3.5 nM.

In the case of `CCC(=O)NC[C@H](Nc1cncc(-c2ccc3[nH]nc(F)c3c2)c1)c1ccccc1` [Example 43, N-{(R)-2-[5-(3-Fluoro-1H-indazol-5-yl)-pyridin-3-ylamino]-2-phenyl-ethyl}-propionamide], the IC50 [4] is reported as 2.3 nM.

`CC(C)C(=O)NC[C@H](Nc1cncc(-c2ccc3[nH]nc(F)c3c2)c1)c1ccccc1` [Example 44, N-{(R)-2-[5-(3-Fluoro-1H-indazol-5-yl)-pyridin-3-ylamino]-2-phenyl-ethyl}-isobutyramide] showed an IC50 [4] of 3.1 nM.

`COCCNC[C@H](Nc1cncc(-c2ccc3[nH]nc(F)c3c2)c1)c1ccccc1` [Example 45, (R)-N^1-[5-(3-Fluoro-1H-indazol-5-yl)-pyridin-3-yl]-N^2-(2-methoxy-ethyl)-1-phenyl-ethane-1,2-diamine] was tested, and the IC50 [4] was 29.5 nM.

Molecule `O=C(CO)NC[C@H](Nc1cncc(-c2ccc3[nH]nc(F)c3c2)c1)c1ccccc1` [Example 46, N-{(R)-2-[5-(3-Fluoro-1H-indazol-5-yl)-pyridin-3-ylamino]-2-phenyl-ethyl}-2-hydroxy-acetamide] has an IC50 [4] of 2.4 nM.

With `OCCNC[C@H](Nc1cncc(-c2ccc3[nH]nc(F)c3c2)c1)c1ccccc1` [Example 47, 2-{(R)-2-[5-(3-Fluoro-1H-indazol-5-yl)-pyridin-3-ylamino]-2-phenyl-ethylamino}-ethanol] the IC50 [4] was 15 nM.

For `Cc1n[nH]c2ccc(-c3cncc(N[C@@H](C(N)=O)c4ccccc4)c3)cc12` [Example 48, (R)-2-[5-(3-Methyl-1H-indazol-5-yl)-pyridin-3-ylamino]-2-phenyl-acetamide], the IC50 [4] was 1.6 nM.

`Cc1n[nH]c2ccc(-c3cncc(N[C@H](C(N)=O)c4ccccc4)c3)cc12` [Example 49, (S)-2-[5-(3-Methyl-1H-indazol-5-yl)-pyridin-3-ylamino]-2-phenyl-acetamide] was tested, and the IC50 [4] was 4.2 nM.

Molecule `Cc1n[nH]c2ccc(-c3cncc(NC(CNS(C)(=O)=O)c4ccccc4)c3)cc12` (centres unmarked) [Example 50, N-{2-[5-(3-Methyl-1H-indazol-5-yl)-pyridin-3-ylamino]-2-phenyl-ethyl}-methanesulfonamide] has an IC50 [4] of 2.8 nM.

`Cc1n[nH]c2ccc(-c3cncc(N[C@@H](CNS(=O)(=O)C4CC4)c4ccccc4)c3)cc12` [Example 51, Cyclopropanesulfonic acid {(R)-2-[5-(3-methyl-1H-indazol-5-yl)-pyridin-3-ylamino]-2-phenyl-ethyl}-amide] was tested, and the IC50 [4] was 2.1 nM.

With `Cc1n[nH]c2ccc(-c3cncc(N[C@@H](CNS(C)(=O)=O)c4ccccc4)c3)cc12` [Example 52, N-{(R)-2-[5-(3-Methyl-1H-indazol-5-yl)-pyridin-3-ylamino]-2-phenyl-ethyl}-methanesulfonamide] the IC50 [4] was 0.8 nM.

In the case of `COCCS(=O)(=O)NC[C@H](Nc1cncc(-c2ccc3[nH]nc(C)c3c2)c1)c1ccccc1` [Example 53, 2-Methoxy-ethanesulfonic acid {(R)-2-[5-(3-methyl-1H-indazol-5-yl)-pyridin-3-ylamino]-2-phenyl-ethyl}-amide], the IC50 [4] is reported as 1.7 nM.

`Cc1n[nH]c2ccc(-c3cncc(N[C@@H](CNC(=O)CO)c4ccccc4)c3)cc12` [Example 54, 2-Hydroxy-N-{(R)-2-[5-(3-methyl-1H-indazol-5-yl)-pyridin-3-ylamino]-2-phenyl-ethyl}-acetamide] gave an IC50 [4] of 1.2 nM.

In the case of `COCCNC[C@H](Nc1cncc(-c2ccc3[nH]nc(C)c3c2)c1)c1ccccc1` [Example 55, (R)-N^2-(2-Methoxy-ethyl)-N^1-[5-(3-methyl-1H-indazol-5-yl)-pyridin-3-yl]-1-phenyl-ethane-1,2-diamine], the IC50 [4] is reported as 9.5 nM.

`Cc1n[nH]c2ccc(-c3cncc(N[C@@H](CNCCO)c4ccccc4)c3)cc12` [Example 56, 2-{(R)-2-[5-(3-Methyl-1H-indazol-5-yl)-pyridin-3-ylamino]-2-phenyl-ethylamino}-ethanol] gave an IC50 [4] of 5 nM.

`Cc1n[nH]c2ccc(-c3cncc(N[C@@H](CNC(=O)C4CCCCC4)c4ccccc4)c3)cc12` [Example 57, Cyclohexanecarboxylic acid {(R)-2-[5-(3-methyl-1H-indazol-5-yl)-pyridin-3-ylamino]-2-phenyl-ethyl}-amide] gave an IC50 [4] of 5.3 nM.

For `Cc1n[nH]c2ccc(-c3cncc(N[C@@H](CNC(=O)c4ccccc4)c4ccccc4)c3)cc12` [Example 58, N-{(R)-2-[5-(3-Methyl-1H-indazol-5-yl)-pyridin-3-ylamino]-2-phenyl-ethyl}-benzamide], the IC50 [4] was 6 nM.

`NC(=O)[C@H](Nc1cncc(-c2ccc3[nH]nc(Cl)c3c2)c1)c1ccccc1` [Example 59, (R)-2-[5-(3-Chloro-1H-indazol-5-yl)-pyridin-3-ylamino]-2-phenyl-acetamide] showed an IC50 [4] of 2.3 nM.

With `NC(=O)[C@@H](Nc1cncc(-c2ccc3[nH]nc(Cl)c3c2)c1)c1ccccc1` [Example 60, (S)-2-[5-(3-Chloro-1H-indazol-5-yl)-pyridin-3-ylamino]-2-phenyl-acetamide] the IC50 [4] was 9.2 nM.
